# Reference: patent US12091425B2 (AMGEN INC., priority 2016, dated 2024)
# Tests used:
# [1] = target: T1, Mcl-1/Bim interaction, recombinant human Mcl-1 (171-327) (Homo sapiens, UniProt Q07820); assay: Cell free Mcl-1: Bim Affinity Assay (Mcl-1 HTRF); format: binding; details: TR-FRET, 0.1 nM Mcl-1 (171-327), 0.05 nM biotin-Bim (51-76)
# T1 construct: made in house
# Summary of the method: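 Read-out is time-resolved FRET after overnight incubation, using a biotin-labelled peptide from human Bim (51-76) as the binding partner; IC50 was derived from competition curves.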
# [2] = test system: OPM-2 human multiple myeloma cell line; assay: Cell Viability Assay (OPM-2 10 FBS); format: cell-based; details: OPM-2 cells, CellTiter-Glo
# Summary of the method: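 Plated at 3000 cells/well in 10% FBS complete medium, the cells received a serial compound dilution series and incubated 16 h at 37 °C with 5% CO2. CellTiter-Glo was then added; IC50 values were fitted with a logistic 4-parameter model.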
# [3] = Homo sapiens, OPM-2, 16 h, 16 h incubation
# [4] = Homo sapiens, OPM-2, 16 h, 16 h
# T1 sequence (Q07820 171-327): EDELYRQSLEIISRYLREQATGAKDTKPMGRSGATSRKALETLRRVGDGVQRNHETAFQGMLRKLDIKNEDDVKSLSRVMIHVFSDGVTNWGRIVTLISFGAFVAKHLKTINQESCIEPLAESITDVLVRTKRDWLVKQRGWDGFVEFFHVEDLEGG
SMILES,IC50 [1],IC50 ([2]; 16 h incubation),"IC50 [2, 3]","IC50 [2, 4]"
"COCCO[C@H]1CC[C@@H](C)C[C@@H](COC)S(=O)(=O)NC(=O)c2ccc3c(c2)N(C[C@@H]2CC[C@H]21)C[C@@]1(CCCc2cc(Cl)ccc21)CO3 (single isomer, unassigned) [Example 1040]",1.04 nM,2190 nM,,
"C[C@@H]1[C@@H](C)S(=O)(=O)NC(=O)c2ccc3c(c2)N(C[C@@H]2CC[C@H]2[C@@H](O)/C=C/[C@@H]1C)C[C@@]1(CCCc2cc(Cl)ccc21)CO3 (single isomer, unassigned) [Example 1041]",0.183 nM,,77.2 nM,
"C[C@H]1[C@H](C)/C=C/[C@H](O)[C@@H]2CC[C@H]2CN2C[C@@]3(CCCc4cc(Cl)ccc43)COc3ccc(cc32)C(=O)NS(=O)(=O)[C@@H]1C (single isomer, unassigned) [Example 1042]",0.78 nM,,393 nM,
"C[C@@H]1[C@@H](C)/C=C/[C@H](O)[C@@H]2CC[C@H]2CN2C[C@@]3(CCCc4cc(Cl)ccc43)COc3ccc(cc32)C(=O)NS(=O)(=O)[C@H]1C (single isomer, unassigned) [Example 1043]",6.09 nM,,6740 nM,
"CCC1C(C)C(C)C=CC(O)C2CCC2CN2CC3(CCCc4cc(Cl)ccc43)COc3ccc(cc32)C(=O)NS1(=O)=O (single isomer, unassigned) [Example 1054]",0.211 nM,101 nM,,
"CCC1C(C)C(C)C=CC(O)C2CCC2CN2CC3(CCCc4cc(Cl)ccc43)COc3ccc(cc32)C(=O)NS1(=O)=O (single isomer, unassigned) [Example 1055]",0.394 nM,257 nM,,
"C[C@H]1/C=C/[C@H](O)[C@@H]2CC[C@H]2CN2C[C@@]3(CCCc4cc(Cl)ccc43)COc3ccc(cc32)C(=O)NS(=O)(=O)[C@@H]2COC[C@H]21 (single isomer, unassigned) [Example 1058]",0.249 nM,456 nM,,
"C[C@@H]1CS(=O)(=O)NC(=O)c2ccc3c(c2)N(C[C@@H]2CC[C@H]2C(=O)/C=C/[C@@H]1C)C[C@@]1(CCCc2cc(Cl)ccc21)CO3 (single isomer, unassigned) [Example 1059]",9.7 nM,,4910 nM,
"CC1C=CC(O)C2CCC2CN2CC3(CCCc4cc(Cl)ccc43)COc3ccc(cc32)C(=O)NS(=O)(=O)CC1C (single isomer, unassigned) [Example 1061]",0.711 nM,,1110 nM,
"C[C@@H]1/C=C/[C@@H](O)[C@@H]2CC[C@H]2CN2C[C@@]3(CCCc4cc(Cl)ccc43)COc3ccc(cc32)C(=O)NS(=O)(=O)C[C@@H]1C (single isomer, unassigned) [Example 1062]",7.88 nM,12600 nM,,
"COCCO[C@H]1/C=C/[C@H](C)[C@H](C)CS(=O)(=O)NC(=O)c2ccc3c(c2)N(C[C@@H]2CC[C@H]21)C[C@@]1(CCCc2cc(Cl)ccc21)CO3 (single isomer, unassigned) [Example 1065]",0.402 nM,94.9 nM,,
"CO[C@@H]1/C=C/[C@@H](C)[C@@H](C)CS(=O)(=O)NC(=O)c2ccc3c(c2)N(C[C@@H]2CC[C@H]21)C[C@@]1(CCCc2cc(Cl)ccc21)CO3 (single isomer, unassigned) [Example 1066]",17.8 nM,,15200 nM,
"C[C@@H]1[C@@H](C)S(=O)(=O)NC(=O)c2ccc3c(c2)N(C[C@@H]2CC[C@H]2[C@H](O)/C=C/[C@@H]1C)C[C@@]1(CCCc2cc(Cl)ccc21)CO3 (single isomer, unassigned) [Example 1068]",0.442 nM,1960 nM,,
"C[C@@H]1[C@@H](C)C=C/C=C/[C@@H]2CC[C@H]2CN2C[C@@]3(CCCc4cc(Cl)ccc43)COc3ccc(cc32)C(=O)NS1(=O)=O (stereo in doubt) [Example 372, (1S,3′R,6′S,7′E,9′E,11′S,12′R)-6-chloro-11′,12′-dimethyl-3,4-dihydro-2H,15′H-spiro[naphthalene-1,22′-[20]oxa[13]thia[1,14]diazatetracyclo[14.7.2.0^3,6.0^19,24]pentacosa [7,9,16,18,24]pentaen]-15′-one 13′,13′-dioxide]",9.49 nM,,,14600 nM
"CC1C/C=C/[C@@H](O)[C@@H]2CC[C@H]2CN2C[C@@]3(CCCc4cc(Cl)ccc43)COc3ccc(cc32)C(=O)NS(=O)(=O)C1 (stereo in doubt) [Example 1088, (1S,3′R,6′R,7′R,8′E,11′S)-6-chloro-7′-hydroxy-11′-(methyl)-3,4-dihydro-2H,15′H-spiro [naphthalene-1,22′-[20]oxa[13]thia[1,14]diazatetracyclo[14.7.2.0^3,6.0^19,24]pentacosa [8,16,18,24]tetraen]-15′-one 13′,13′-dioxide]",4.37 nM,,8980 nM,
"CO[C@H]1/C=C/C[C@H](CO)[C@@H](C)S(=O)(=O)NC(=O)c2ccc3c(c2)N(C[C@@H]2CC[C@H]21)C[C@@]1(CCCc2cc(Cl)ccc21)CO3 [Example 1, (1S,3′R,6′R,7′S,8′E,11′R,12′R)-6-chloro-11′-(hydroxymethyl)-7′-methoxy-12′-methyl-3,4-dihydro-2H,15′H-spiro[naphthalene-1,22′-[20]oxa[13]thia[1,14]diazatetracyclo[14.7.2.0^3,6.0^19,24]pentacosa [8,16,18,24]tetraen]-15′-one 13′,13′-dioxide]",0.34 nM,,,254 nM
"CO[C@H]1/C=C/C[C@H](CF)[C@@H](C)S(=O)(=O)NC(=O)c2ccc3c(c2)N(C[C@@H]2CC[C@H]21)C[C@@]1(CCCc2cc(Cl)ccc21)CO3 [Example 5, (1S,3′R,6′R,7′S,8′E,11′R,12′R)-6-chloro-11′-(fluoromethyl)-7′-methoxy-12′-methyl-3,4-dihydro-2H,15′H-spiro[naphthalene-1,22′-[20]oxa[13]thia[1,14]diazatetracyclo[14.7.2.0^3,6.0^19,24]pentacosa [8,16,18,24]tetraen]-15′-one 13′,13′-dioxide]",0.54 nM,,,329 nM
"C[C@@H]1CC/C=C/[C@H](O)[C@@H]2CC[C@H]2CN2C[C@@]3(CCC(F)(F)c4cc(Cl)ccc43)COc3ccc(cc32)C(=O)NS1(=O)=O [Example 8, (1S,3′R,6′R,7′S,8′E,12′R)-6-chloro-4,4-difluoro-7′-hydroxy-12′-methyl-3,4-dihydro-2H,15′H-spiro[naphthalene-1,22′-[20]oxa[13]thia[1,14]diazatetracyclo[14.7.2.0^3,6.0^19,24]pentacosa [8,16,18,24]tetraen]-15′-one 13′,13′-dioxide]",0.564 nM,,,1460 nM
"C[C@@H]1[C@@H](C)C/C=C/[C@H](OCCN2CC(F)(F)C2)[C@@H]2CC[C@H]2CN2C[C@@]3(CCCc4cc(Cl)ccc43)COc3ccc(cc32)C(=O)NS1(=O)=O [Example 9, (1S,3′R,6′R,7′S,8′E,11′S,12′R)-6-chloro-7′-(2-(3,3-difluoro-1-azetidinyl)ethoxy)-11′,12′-dimethyl-3,4-dihydro-2H,15′H-spiro[naphthalene-1,22′-[20]oxa[13]thia[1,14]diazatetracyclo[14.7.2.0^3,6.0^19,24]pentacosa[8,16,18,24]tetraen]-15′-one 13′,13′-dioxide]",0.63 nM,,,155 nM
"C[C@@H]1[C@@H](C)C/C=C/[C@H](OCCN2CCC(F)(F)CC2)[C@@H]2CC[C@H]2CN2C[C@@]3(CCCc4cc(Cl)ccc43)COc3ccc(cc32)C(=O)NS1(=O)=O [Example 10, (1S,3′R,6′R,7′S,8′E,11′S,12′R)-6-chloro-7′-(2-(4,4-difluoro-1-piperidinyl)ethoxy)-11′,12′-dimethyl-3,4-dihydro-2H,15′H-spiro[naphthalene-1,22′-[20]oxa[13]thia[1,14]diazatetracyclo[14.7.2.0^3,6.0^19,24]pentacosa[8,16,18,24]tetraen]-15′-one-13,13′-dioxide]",2.97 nM,,,630 nM
"C[C@@H]1[C@@H](C)C/C=C/[C@H](OCCNc2ccccc2)[C@@H]2CC[C@H]2CN2C[C@@]3(CCCc4cc(Cl)ccc43)COc3ccc(cc32)C(=O)NS1(=O)=O [Example 11, (1S,3′R,6′R,7′S,8′E,11′S,12′R)-6-chloro-11′,12′-dimethyl-7′-(2-(phenylamino)ethoxy)-3,4-dihydro-2H,15′H-spiro[naphthalene-1,22′-[20]oxa[13]thia[1,14]diazatetracyclo[14.7.2.0^3,6.0^19,24]pentacosa[8,16,18,24]tetraen]-15′-one 13′,13′-dioxide]",5.22 nM,,,3650 nM
"C[C@@H]1[C@@H](C)C/C=C/[C@H](OCCNc2ccccn2)[C@@H]2CC[C@H]2CN2C[C@@]3(CCCc4cc(Cl)ccc43)COc3ccc(cc32)C(=O)NS1(=O)=O [Example 12, (1S,3′R,6′R,7′S,8′E,11′S,12′R)-6-chloro-11′,12′-dimethyl-7′-(2-(2-pyridinylamino)ethoxy)-3,4-dihydro-2H,15′H-spiro[naphthalene-1,22′-[20]oxa[13]thia[1,14]diazatetracyclo[14.7.2.0˜3,6˜.0˜19,24˜]pentacosa[8,16,18,24]tetraen]-15′-one 13′,13′-dioxide]",3.37 nM,,,404 nM
"C[C@@H]1[C@@H](C)C/C=C/[C@H](OCCN(C)c2ccccn2)[C@@H]2CC[C@H]2CN2C[C@@]3(CCCc4cc(Cl)ccc43)COc3ccc(cc32)C(=O)NS1(=O)=O [Example 13, (1S,3′R,6′R,7′S,8′E,11′S,12′R)-6-chloro-11′,12′-dimethyl-7′-(2-(methyl(2-pyridinyl)amino)ethoxy)-3,4-dihydro-2H,15′H-spiro[naphthalene-1,22′-[20]oxa[13]thia[1,14]diazatetracyclo[14.7.2.0˜3,6˜.0˜19,24˜]pentacosa[8,16,18,24]tetraen]-15′-one 13′,13′-dioxide]",0.685 nM,,,312 nM
